According to PMC10136548, “Evaluation of 3D Human Intestinal Organoids as a Platform for EV-A71 Antiviral Drug Discovery” (Cells, 2023):

Legend:
[1] = Cytotoxicity (Cell Titer-Glo 3D viability) in non-infected HIOs; assay type: cell-based; conditions: human; for CC50 at 72 h: non-infected HIOs, compounds 0.5–100 μM
Procedure: HiPSCs were cultured in colonies on Matrigel (Corning Inc., Corning, NY, USA) in mTeSR1 medium (STEMCELL Technologies, Vancouver, BC, Canada). HIOs were differentiated from the hiPSC line using STEMdiff™ Intestinal Organoid Kit (STEMCELL Technologies) following the manufacturer’s instructions. Briefly, hiPSCs were plated and differentiated towards definitive endoderm (day 3), and then to mid-/hindgut cells (day 5–9 post seeding). The spheroids generated during the mid-/hindgut stage were embedded in Matrigel and grown in intestinal growth media for further differentiation and expansion into intestinal organoids (30–45 days post hiPSCs seeding). After maturation and for long-term culture, HIOs were passaged twice a week, and medium was changed if needed every two days.
(§1) Viability of HIOs and RD cells were determined by Cell Titer-Glo® 3D Cell Viability Assay (Promega, Fitchburg, WI, USA) and Cell Titer-Glo® Luminescent Cell Viability Assay (Promega), respectively. According to the manufacturer’s instructions, in a white 96-well plate (Greiner Bio-One, Stonehouse, UK), a 1:1 ratio of reagent and spent culture medium was added to the wells and mixed, and the luminescence signal was measured by CLARIO star plus (B M G Labtech Ltd., Aylesbury, UK).
(§2) For determination of compounds’ half maximal cytotoxic concentration (CC50), the non-infected HIOs/cells were treated with compounds (0.5–100 μM) for 72 h. The viability % was calculated as follows: (luminescence reading compound treated)/(luminescence reading DMSO control) × 100. The CC50 was calculated using non-linear regression (curve fit) with GraphPad Prism 9 (GraphPad, La Jolla, CA, USA). For determination of compounds half maximal effective concentration (EC50), the infected HIOs/cells were treated with DMSO (i.e., 0 µM) or compounds (0.15–40 μM) for 72 h. The CPE inhibition % was calculated as follows: (luminescence reading compound treated)/(luminescence reading DMSO control) × 100. The EC50 was calculated using non-linear regression (curve fit) with GraphPad Prism 9 (GraphPad).

[2] = Cytotoxicity (Cell Titer-Glo viability) in non-infected RD cells; assay type: cell-based; conditions: human, non-infected RD cells (ATCC CCL-136); for CC50 at 72 h: non-infected RD cells, compounds 0.5–100 μM
Procedure: RD cells (ATCC, CCL-136, Manassas, VA, USA) were maintained in Dulbecco’s modified Eagle’s medium (DMEM) (Gibco, Thermo Fisher Scientific, Waltham, MA, USA) supplemented with 10% fetal bovine serum (FBS) (Gibco), 1% L-glutamine (Gibco), 1% sodium bicarbonate (Gibco), and 1% penicillin-streptomycin (Gibco). The cell culture was incubated at 37 °C under 5% CO2.
as §1, §2

EV-A71 BrCr strain [3] = test: CPE inhibition in EV-A71-infected HIOs; assay type: cell-based, Enterovirus A71; conditions: for Selectivity Index (SI) = CC50/EC50: EC50 from CPE inhibition; for EC50: Enterovirus A, EVA71, EV-A71 MOI 0.1, 72 h, read-out: EC50 based on CPE inhibition; for EV-A71-induced CPE upon visual inspection: 1.25 μM, 72 hpi
Procedure: (§3) EV-A71 BrCr strain, a gift from Prof. F. van Kuppeveld (University of Utrecht, Utrecht, The Netherlands), was propagated in RD cells, cultured in 2% FBS-DMEM at 37 °C under 5% CO2. […] EV-A71 stock titer was determined by the 50% tissue culture infective dose (TCID50) assay (Reed and Muench, 1938).
(§4) For infection, HIOs were mechanically fragmented by vigorously pipetting using a P1000 to expose the apical surface to the virus inoculum as previously described. After virus inoculation (MOI = 0.01, 0.1, or 1) with EV-A71 or mock infection, the mixture was then incubated for 2 h at 37 °C for virus adsorption. After washing, the infected HIO fragments were mixed with 20% Matrigel-organoid growth medium and seeded at 10,000 cells/well in a 96-well plate pre-coated with 20% Matrigel-organoid growth medium at 50 µL/well.
as §1
as §2, with “For determination of compounds half maximal effective concentration (EC50), the infected HIOs/cells were treated with DMSO (i.e., 0 µM) or compounds (0.15–40 μM) for 72 h.” left out
(§5) Figure 4 Comparison of antiviral activity determined by CPE inhibition and viral RNA yield between HIOs and RD cells. (A) Viability of HIOs and RD cells was measured, using Cell Titer-Glo 3D or Cell Titer-Glo, after 72 h of EV-A71 infection at MOI 0.1 and incubation with compounds at indicated concentrations. CPE inhibition is calculated based on percentage of mock-infected control. The half maximal effective concentration (EC50) was calculated using Prism nonlinear regression (GraphPad Prism 9). (B) For viral RNA yield, HIOs and RD cells were infected with EV-A71 at an MOI of 0.1 and treated with compounds at indicated concentrations for 72 h before total culture of HIOs or supernatant of cells were collected by combining triplicates and determined by RT-qPCR. Viral RNA yield is calculated based on percentage of mock-infected control. The EC50 was calculated using Prism nonlinear regression (GraphPad Prism 9). (C) Brightfield images of mock control, infection treated with 1.25 µM rupintrivir, and infected control HIOs and RD cells at 72 hpi. All images were acquired using the same objective. Scale bar, […]. (D) Images represent mock-, EV-A71-infected HIOs (0.1 MOI), and EV-A71-infected HIOs (0.1 MOI) treated with rupintrivir (10 µM) at 48 hpi: DAPI (blue) for nucleus, phalloidin (red) for F-actin, and dsRNA (green). Scale bar, […]. Data are the mean ± SEM of at least six independent experiments; each carried out in triplicate.

EV-A71 BrCr strain [4] = test: CPE inhibition in EV-A71-infected RD cells; assay type: cell-based, Enterovirus A71; conditions: for Selectivity Index (SI) = CC50/EC50: EC50 from CPE inhibition; for EC50: Enterovirus A, EVA71, EV-A71 MOI 0.1, 72 h, read-out: EC50 based on CPE inhibition; for EV-A71-induced CPE upon visual inspection: 1.25 μM, 72 hpi
Procedure: as §3
(§6) For RD cell line infection, 20,000 cells/well were cultured in 96-well plate at 37 °C for 24 h. To prepare virus inoculum (MOI = 0.01, 0.1, or 1), EV-A71 was diluted in 2% FBS-DMEM. Medium on cell monolayer was removed, and the inoculum was added for 1 h at 37 °C for virus adsorption. After washing, the monolayer was cultured in DMEM supplemented with 2% FBS.
as §1
as §2, with “For determination of compounds half maximal effective concentration (EC50), the infected HIOs/cells were treated with DMSO (i.e., 0 µM) or compounds (0.15–40 μM) for 72 h.” left out
as §5

EV-A71 BrCr strain [5] = test: Viral RNA yield (RT-qPCR) in EV-A71-infected HIOs; assay type: cell-based, Enterovirus A71; conditions: for Selectivity Index (SI) = CC50/EC50: EC50 from RNA yield; for EC50: Enterovirus A, EVA71, EV-A71 MOI 0.1, 72 h, RT-qPCR, read-out: EC50 based on RNA yield
Procedure: as §3, §4
(§7) RNA was extracted from harvested samples using RNeasy Plus Mini Kit (Qiagen, Hilden, Germany). cDNA was created from the isolated RNA using High-Capacity cDNA Reverse Transcription Kit (ThermoFisher Scientific, Waltham, MA, USA) according to the manufacturer’s instructions.
(§8) For EV-A71 replication quantification, each 10 µL reaction mixture contained: 5 µL of Master Mix, 1.5 µL of RNase-free water, 0.5 µL each of gene-specific forward and reverse primer, and 3 µL of cDNA as template. The reaction plate was loaded in a LightCycler® 480 Real-Time PCR System (Roche) and ran at 95 °C for 3 min for pre-incubation, followed by 40 amplification cycles of 95 °C for 15 s and 60 °C for 60 s. Signal detection and measurements were taken in each amplification cycle. The EV-A71 viral loads in the samples were detected with the PanEV primer using a previously described customized primers probe mix (Integrated DNA Technologies, Coralville, IA, USA). The viral gene copy number was determined by absolute quantification and making a standard curve using custom gBlocks™ Gene Fragments (Integrated DNA Technologies) (5′-[…]-3′).
as §5

EV-A71 BrCr strain [6] = test: Viral RNA yield (RT-qPCR) in EV-A71-infected RD cells; assay type: cell-based, Enterovirus A71; conditions: for Selectivity Index (SI) = CC50/EC50: EC50 from RNA yield; for EC50: Enterovirus A, EVA71, EV-A71 MOI 0.1, 72 h, RT-qPCR, read-out: EC50 based on RNA yield
Procedure: as §3, §6, §7, §8, §5

human rhinovirus (HRV) = tested on: human rhinovirus (HRV); design: method as in PMID 6113314, PMID 2984980; conditions: cited from earlier work
HRV = tested on: HRV; design: method as in PMID 14638501; conditions: human; cited from earlier work
HCV = tested on: HCV; design: method as in PMID 29534607, PMID 20006612, PMID 19426125; conditions: human, HCV infection, after 8 to 12 weeks of treatment; cited from earlier work
enteroids = conditions: cited from earlier work

EC50 (EV-A71 BrCr strain [3]) [nM]	EC50 (EV-A71 BrCr strain [4]) [nM]	EC50 (EV-A71 BrCr strain [5]) [nM]	EC50 (EV-A71 BrCr strain [6]) [nM]	Structure (SMILES)	CC50 at 72 h [1] [nM]	CC50 at 72 h [2] [nM]	Selectivity Index (SI) = CC50/EC50 (EV-A71 BrCr strain [3])	Selectivity Index (SI) = CC50/EC50 (EV-A71 BrCr strain [4])	Selectivity Index (SI) = CC50/EC50 (EV-A71 BrCr strain [5])	Selectivity Index (SI) = CC50/EC50 (EV-A71 BrCr strain [6])	EV-A71-induced CPE upon visual inspection (EV-A71 BrCr strain [3])	EV-A71-induced CPE upon visual inspection (EV-A71 BrCr strain [4])	also measured
1000 ± 300	1300 ± 40	1500 ± 300	2000 ± 400	C[C@@]1(O)[C@H](O)[C@@H](CO)O[C@H]1n1ccc(N)nc1=O [2′CMC, 2′-C-methylcytidine]	48000 ± 1000	> 100000	48	>76	32	>50	–	–	reduction of virus-induced CPE (maximum) (EV-A71 BrCr strain [3]; ATP-based viability assay, plateau from 2.5 μM to 20 μM): up to 66 ± 17%; protection from virus-induced CPE (EV-A71 BrCr strain [4]): complete protection
400 ± 200	60 ± 1	1400 ± 300	200 ± 40	CC(C)S(=O)(=O)n1c(N)nc2ccc(/C(=N/O)c3ccccc3)cc21 [Enviroxime, enviroxime]	24000 ± 7000	28000 ± 2000	60	467	17	140	reduced	reduced	viability at 72 h, 100 µM ([1]; HIOs, 100 µM): 0%; viability at 72 h, 100 µM ([2]; RD cells, highest tested concentration 100 μM): 20%; side effects in clinical studies (human rhinovirus (HRV); HRV infection): gastrointestinal side effects; clinical effects against infection (human rhinovirus (HRV)): no significant clinical effects
–	–	–	–	CC(C)[C@H](N)C(=O)O[C@@H]1[C@@H](CO)O[C@@H](n2ccc(N)nc2=O)[C@]1(C)O [Valopicitabine]	–	–	–	–	–	–	–	–	side effects during clinical study (HCV): gastrointestinal side effects
–	–	–	–	CCC(C)n1ncn(-c2ccc(N3CCN(c4ccc(OCC5COC(Cn6cncn6)(c6ccc(Cl)cc6Cl)O5)cc4)CC3)cc2)c1=O (stereo not shown) [itraconazole]	–	–	–	–	–	–	–	–	cytotoxicity in enteroids compared to cell lines (enteroids): enhanced cytotoxicity

Structure (SMILES)	EC50 (EV-A71 BrCr strain [3]) [nM]	EC50 (EV-A71 BrCr strain [4]) [nM]	EC50 (EV-A71 BrCr strain [5]) [nM]	EC50 (EV-A71 BrCr strain [6]) [nM]	CC50 at 72 h [1] [nM]	CC50 at 72 h [2] [nM]	Selectivity Index (SI) = CC50/EC50 (EV-A71 BrCr strain [3])	Selectivity Index (SI) = CC50/EC50 (EV-A71 BrCr strain [4])	Selectivity Index (SI) = CC50/EC50 (EV-A71 BrCr strain [5])	Selectivity Index (SI) = CC50/EC50 (EV-A71 BrCr strain [6])	EV-A71-induced CPE upon visual inspection (EV-A71 BrCr strain [3])	EV-A71-induced CPE upon visual inspection (EV-A71 BrCr strain [4])	also measured
CCOC(=O)/C=C/[C@H](C[C@@H]1CCNC1=O)NC(=O)[C@@H](CC(=O)[C@@H](NC(=O)c1cc(C)on1)C(C)C)Cc1ccc(F)cc1 [Rupintrivir, rupintrivir]	< 150	< 35	1700 ± 400	< 35	> 100000	> 100000	>667	>2857	>59	>2857	reduced	reduced	protection from EV-A71-induced CPE (EV-A71 BrCr strain [3]; lowest concentration tested 0.15 μM): full protection; protection from EV-A71-induced CPE (EV-A71 BrCr strain [4]; lowest concentration tested 0.035 μM): full protection; viral RNA levels (EV-A71 BrCr strain [6]; at all tested concentrations, MOI 0.1, 72 h): 10 ± 3%; adverse side effects or treatment effects in phase II clinical studies (HRV): no adverse side effects or treatment effects
